Experimental data published in paper PMC10816808, “Enhancement of the Antitumor and Antimetastatic Effect of Topotecan and Normalization of Blood Counts in Mice with Lewis Carcinoma by Tdp1 Inhibitors—New Usnic Acid Derivatives” (International Journal of Molecular Sciences, 2024).

Experiments:
cells = details: cited from earlier work; for CC50: read-out: CC50 values (toxicity to cells)
Tdp1 = molecular target: T1, Tdp1 (Homo sapiens, UniProt Q9NUW8); test: Tdp1 inhibition, fluorescent oligonucleotide biosensor; type: biochemical; details: purified Tdp1 1.5 nM, 50 nM biosensor; read-out: Concentration of half-maximal inhibition of Tdp1 (IC50)
T1 construct: Purified Tdp1 (1.5 nM) triggered the reaction
T1 sequence (Q9NUW8 whole entry): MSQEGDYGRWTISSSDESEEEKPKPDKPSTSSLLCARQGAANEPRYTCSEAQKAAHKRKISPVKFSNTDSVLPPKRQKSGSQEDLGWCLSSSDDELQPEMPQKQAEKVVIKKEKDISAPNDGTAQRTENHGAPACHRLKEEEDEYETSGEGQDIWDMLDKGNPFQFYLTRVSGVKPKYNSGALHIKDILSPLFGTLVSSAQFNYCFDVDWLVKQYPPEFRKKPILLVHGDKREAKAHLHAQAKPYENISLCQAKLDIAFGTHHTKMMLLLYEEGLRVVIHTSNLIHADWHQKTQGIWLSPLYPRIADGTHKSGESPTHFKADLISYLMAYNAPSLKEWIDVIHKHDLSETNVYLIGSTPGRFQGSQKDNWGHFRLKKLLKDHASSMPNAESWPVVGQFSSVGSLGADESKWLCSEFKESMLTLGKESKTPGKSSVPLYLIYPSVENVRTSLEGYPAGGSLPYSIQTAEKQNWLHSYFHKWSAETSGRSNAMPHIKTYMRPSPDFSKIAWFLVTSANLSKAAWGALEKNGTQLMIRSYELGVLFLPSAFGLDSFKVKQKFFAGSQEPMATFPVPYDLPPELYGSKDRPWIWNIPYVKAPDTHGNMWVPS
Excerpt: The inhibitory properties of the compound on the purified Tdp1 was studied using a technique developed previously by our team. A 16-mer single-stranded oligonucleotide carrying a fluorophore at the 5′-end and a quencher at the 3′-end was used as a biosensor. When within the Förster radius, the quencher suppressed the fluorescence of the fluorophore. The quencher was removed by Tdp1, resulting in fluorescence emission. Usnic acid derivatives with a bromophenol residue in the enamine fragment (compounds 6 and 8) inhibit the enzyme with half-maximal inhibition concentrations (IC50) an order of magnitude worse than derivatives with a di-tert-butyl fragment (compounds 5 and 7).
An oligonucleotide 5′-[FAM] AAC GTC AGGGTC TTC C [BHQ1]-3′ synthesized in the laboratory Laboratory of Nucleic Acids Chemistry at the Institute of Chemical Biology and Fundamental Medicine (Novosibirsk, Russia) was used as a biosensor. Removal of the quencher (BHQ1) due to enzyme activity leads to increased fluorescence of FAM. The reaction was carried out at different concentrations of inhibitors (1.5% of DMSO, Sigma, St. Louis, MO, USA, in the control samples). The reaction mixtures contained Tdp1 buffer (50 mM Tris-HCl pH 8.0, 50 mM NaCl, and 7 mM β-mercaptoethanol), 50 nM biosensor, and an inhibitor being tested. Purified Tdp1 (1.5 nM) triggered the reaction.
The fluorescence was measured using POLARstar OPTIMA fluorimeter (BMG LABTECH, GmbH, Ortenberg, Germany). The values of IC50 were determined in minimum three independent experiments and were calculated using embedded software MARS Data Analysis 2.0 (BMG LABTECH, GmbH, Ortenberg, Germany).

[1] = MTT cytotoxicity test, A-549; type: cell-based; details: human, A-549 cells (lung cancer), read-out: semitoxic concentration (CC50), A-549
Excerpt: (§1) Compounds 6 and 8 with a bromophenol residue in the enamine fragment have a weak or moderate effect on cell survival (Table 1 and Supplementary Figure S1).
(§2) Cytotoxicity of the compounds against human tumor cell lines: HeLa (cervical cancer), HCT-116 (colorectal cancer), A-549 (lung cancer), MCF-7 (breast cancer), T98G (glioblastoma), HepG2 (hepatocarcinoma), and nontumor cell lines: MRC-5 (lung fibroblasts) and HEK293A (human embryonic kidney) was examined using the MTT test. HCT-116 and MRC-5 cell lines were provided by the Cell Culture Bank of the State Research Center for Virology and Biotechnology Vector, Novosibirsk, Russia. A-549, MCF-7, and T98G cell lines were obtained from the Russian Cell Culture Collection (RCCC) Institute of Cytology RAS (St. Petersburg, Russia). HEK293A cells were purchased (ThermoFisher Scientific, Waltham, MA, USA).
(§3) The cell culture medium DMEM medium (Invitrogen, Carlsbad, CA, USA) contained 10% fetal bovine serum (FBS) (Invitrogen), penicillin (100 units/mL), and streptomycin (100 µg/mL). Cells were seeded into 96-well plates at 5000 cells per well and grown at 37 °C and 5% CO2 in a humid atmosphere. At 30–50% confluence, the tested compounds were added to the medium to a final DMSO content of 1%. Control wells contained 1% DMSO. To determine the cytotoxicity of Tdp1 inhibitors, the cells were treated with compounds with concentrations ranging from 1 to 100 µM for 72 h at 37 °C for 72 h. All measurements were repeated a minimum of twice.

[2] = MTT cytotoxicity test, HEK293A; type: cell-based; details: human, HEK293A cells (embryonic kidney, nontumor), read-out: semitoxic concentration (CC50), HEK293A
Excerpt: as §1, §2, §3

[3] = MTT cytotoxicity test, HeLa; type: cell-based; details: human, HeLa cells (cervical cancer), read-out: semitoxic concentration (CC50), HeLa
Excerpt: as §1, §2, §3

[4] = MTT cytotoxicity test, MCF-7; type: cell-based; details: human, MCF-7 cells (breast cancer), read-out: semitoxic concentration (CC50), MCF-7
Excerpt: as §1, §2, §3

[5] = MTT cytotoxicity test, T98G; type: cell-based; details: human, T98G cells (glioblastoma), read-out: semitoxic concentration (CC50), T98G
Excerpt: as §1, §2, §3

[6] = tested on: mouse Lewis lung adenocarcinoma; parameters: method as in PMID 34370156; details: cited from earlier work
[7] = MTT cytotoxicity test, HCT-116; type: cell-based; details: human, HCT-116 cells (colorectal cancer), read-out: semitoxic concentration (CC50), HCT-116
Excerpt: as §1, §2, §3

[8] = MTT cytotoxicity test, MRC-5; type: cell-based; details: human, MRC-5 cells (lung fibroblasts, nontumor), read-out: semitoxic concentration (CC50), MRC-5
Excerpt: as §1, §2, §3

[9] = tested on: various types of cultured cells; test: MTT test, panel of cultured cell lines; type: cell-based; details: at concentrations up to 100 μM; wide panel of tumor and non-cancerous cell lines
Excerpt: as §1, §2
as §3, with “To determine the cytotoxicity of Tdp1 inhibitors, the cells were treated with compounds with concentrations ranging from 1 to 100 µM for 72 h at 37 °C for 72 h. All measurements were repeated a minimum of twice.” left out

Compound	toxicity to the different cell types (in words) (cells)	IC50 (Tdp1) [µM]	CC50 at 72 h [1] [µM]	CC50 at 72 h [2] [µM]	CC50 at 72 h [3] [µM]	CC50 at 72 h [4] [µM]	CC50 at 72 h [5] [µM]	CC50 (cells) [µM]	enhancement of the antitumor effect of topotecan [6]	CC50 at 72 h [7] [µM]	CC50 at 72 h [8] [µM]	living cells (metabolic activity, MTT) [9]
CC(=O)c1c(O)c(C)c(O)c2c1OC1=CC(=O)/C(=C(\C)Nc3ccc(Br)cc3)C(=O)[C@@]12C [Compound 2]	nontoxic	–	–	–	–	–	–	–	–	–	–	–
C/C(Nc1ccc(Br)cc1)=C1\C(=O)C=C2Oc3c(-c4csc(N/N=C/c5ccc(Br)cc5)n4)c(O)c(C)c(O)c3[C@@]2(C)C1=O [Compound 8, (4E)-4-{1-[(4-bromophenyl)amino]ethilidene}-10-{2-[(E)-2-[(4-bromophenyl)methylidene]hydrazin-1-yl]-1,3-thiazol-4-yl}-11,13-dihydroxy-2,12-dimethyl-8-oxatricyclo [7.4.0.02,7]trideca-1(13),6,9,11-tetraen-3,5-dione]	–	5 ± 1	30 ± 10	88 ± 26	> 100	30 ± 20	44 ± 13	–	–	–	–	–
CC(=O)C1=C(O)C=C2Oc3c(-c4csc(N/N=C/c5ccc(Br)s5)n4)c(O)c(C)c(O)c3[C@@]2(C)C1=O [Compound 3]	–	–	–	–	–	–	–	9 to 16	–	–	–	–
CC(=O)c1c(O)c(C)c(O)c2c1OC1=CC(=O)/C(=C(\C)NCCCc3cc(C(C)(C)C)c(O)c(C(C)(C)C)c3)C(=O)[C@@]12C [Compound 1]	nontoxic	–	–	–	–	–	–	–	enhanced at least twofold	–	–	–
CC(=O)C1=C(O)C=C2Oc3c(-c4csc(N/N=C/c5ccc(Br)cc5)n4)c(O)c(C)c(O)c3[C@@]2(C)C1=O [Compound 4, reference compound]	–	0.03 ± 0.01	3.9 ± 0.2	12 ± 5	–	9.3 ± 2.2	4 ± 1	1.5	–	7 ± 0.6	7 ± 0.7	–
C/C(NCCCc1cc(C(C)(C)C)c(O)c(C(C)(C)C)c1)=C1\C(=O)C=C2Oc3c(-c4csc(N/N=C/c5ccc(Br)s5)n4)c(O)c(C)c(O)c3[C@@]2(C)C1=O [Compound 5, (4E)-10-{2-[(E)-2-[(5-bromothiophenyl)methylidene]hydrazin-1-yl]-1,3-thiazole-4-yl}-4-(1-{[3-(3,5-di-tret-butyl-4-hydroxyhenyl)propyl]amino}ethylidene)-11,13-dihydroxy-2,12-dimethyl-8-oxatricyclo [7.4.0.02,7]trideca-1(13),6,9,11-tetraen-3,5-dione]	–	0.14 ± 0.02	> 100	> 100	> 100	> 100	> 100	–	–	> 100	> 100	more than 50%
